Source: patent publication US20080279812A1, “Disease Prevention and Vaccination Prior to Thymic Reactivation” (Norwood Immunology, Ltd., priority 2003, published 2008)

Tests used:
sex steroid levels [1] = assay: Zoladex before autologous or allogeneic PBSCT (Example 31); assay type: in vivo, human; conditions: implant from day -21 before PBSC infusion
Procedure: Patients are male or female, aged 18 years or older that are due to undergo high-dose therapy (HDT) with PBSCT for malignant disease or BM failure. The 10.8 mg implant formulation (for men) of the Zoladex® is dispersed in a cylindrical rod of biodegradable and biocompatible polyglactins and is released continuously over 12 weeks following subcutaneous injection. The 3.6 mg implant (for women) is dispersed in a cylindrical rod of a biodegradable and biocompatible polyglactin and is released continuously over 28 days following subcutaneous injection. The implants are commercially supplied in a purpose-designed applicator with 14-16 gauge needles.
Reduction of sex steroids in the blood to minimal values may take several weeks. Consequently, 21 days prior to PBSC infusion (day 0), patients are injected with the sex steroid ablation therapy in the form of LHRH agonist Zoladex® (implant). For males, 10.8 mg goserelin as a single dose (effective for 3 months) are administered on day −21 with a further injection of 3.6 mg on day 63 (effective for 28 days). For females, 3.6 mg (effective for 28 days) are administered on day −21 and days 7, 35 and 63. […] Other doses may be deemed acceptable as determined readily by those skilled in the art. […]
Thymic function is determined by assessment of T cell subsets by flow cytometry, T cell responses in vitro, and production of TRECs.

sex steroid levels [2] = assay: Sex steroid ablation therapy of a patient with an LHRH agonist (Example 6); assay type: in vivo, human; conditions: single dose effective for 3 months
Procedure: The patient was given sex steroid ablation therapy in the form of delivery of an LHRH agonist. This was given in the form of either Leucrin (depot injection; 22.5 mg) or Zoladex® (implant; 10.8 mg), either one as a single dose effective for 3 months. […] In some cases it is also necessary to deliver a suppresser of adrenal gland production of sex steroids. Cosudex® (5 mg/day or 50 mg/day) may also be given as one tablet per day for the duration of the sex steroid ablation therapy. Alternatively, the patient is given a GnRH antagonist, e.g., Cetrorelix or Abarelix, as a subcutaneous injection

[3] = tested on: pituitary LH, serum testosterone; conditions: chronic administration, cited from earlier work

CC(C)C[C@H](NC(=O)[C@@H](COC(C)(C)C)NC(=O)[C@H](Cc1ccc(O)cc1)NC(=O)[C@H](CO)NC(=O)[C@H](Cc1c[nH]c2ccccc12)NC(=O)[C@H](Cc1cnc[nH]1)NC(=O)[C@@H]1CCC(=O)N1)C(=O)N[C@@H](CCCNC(=N)N)C(=O)N1CCC[C@H]1C(=O)NNC(N)=O [Zoladex®, goserelin acetate]
reduction of sex steroid levels (sex steroid levels [1]): effective in reducing sex steroid levels sufficiently to reactivate the thymus | reduction of sex steroid levels (sex steroid levels [2]): effective in reducing sex steroid levels sufficiently to reactivate the thymus | time to sustained suppression of pituitary LH ([3]; after initiation of therapy): ≤ 3 weeks | serum testosterone levels in males [3]: range normally seen in surgically castrated men
